Literature values, collected in patent US20220160619A1, “Effervescent Drug Formulations” (Complete Medical Solutions, LLC, priority 2020, published 2022).

Settings: long-term metformin therapy in addition to dietary management

diabetic patients with cobalamin malabsorption: 30%
SMILES: CN(C)C(=N)N=C(N)N [metformin]
